The results in this text go back to ChEMBL document CHEMBL3758163, “Extended structure-activity study of thienopyrimidine-based EGFR inhibitors with evaluation of drug-like properties” (Eur J Med Chem, 2016).

The structures appear in SMILES notation.

Chain of Proto-oncogene tyrosine-protein kinase Src (Homo sapiens) (P12931 2-536 limits assumed): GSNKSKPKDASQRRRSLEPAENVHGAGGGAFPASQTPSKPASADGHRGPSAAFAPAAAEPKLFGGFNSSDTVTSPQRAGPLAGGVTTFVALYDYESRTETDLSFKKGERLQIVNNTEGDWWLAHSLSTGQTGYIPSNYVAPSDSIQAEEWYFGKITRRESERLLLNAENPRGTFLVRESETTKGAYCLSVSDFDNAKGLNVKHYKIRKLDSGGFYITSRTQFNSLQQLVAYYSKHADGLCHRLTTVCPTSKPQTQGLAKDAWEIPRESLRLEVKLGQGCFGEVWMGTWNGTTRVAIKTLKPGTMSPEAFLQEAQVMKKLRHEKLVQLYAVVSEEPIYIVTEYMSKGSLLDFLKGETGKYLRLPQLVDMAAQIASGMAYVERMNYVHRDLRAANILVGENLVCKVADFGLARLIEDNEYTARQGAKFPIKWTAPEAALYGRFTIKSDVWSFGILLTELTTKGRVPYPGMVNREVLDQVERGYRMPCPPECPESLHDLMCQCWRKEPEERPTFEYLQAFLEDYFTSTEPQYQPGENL

For one assay, the target named is Macrophage colony-stimulating factor 1 receptor (Homo sapiens) (UniProt P07333). As to the kind of experiment: Inhibition of CSF1R (unknown origin) at 500 nM.
Usually inhibition stands for the change of the read-out against control, counted positive when it falls. For `COc1cc(CO)ccc1-c1cc2c(Nc3ccccc3)ncnc2s1`, the inhibition came to 15%.
Consider `C[C@@H](Nc1ncnc2sc(-c3ccc(C(=O)NCCN(C)C)cc3)cc12)c1ccccc1`, for which the inhibition was 8%.

Another assay deals with Epidermal growth factor receptor (Homo sapiens, UniProt P00533). As to the kind of experiment: Inhibition of EGFR (unknown origin) by Z -LYTE assay.
Broadly, the IC50 is the midpoint of a concentration-inhibition curve. The low end stands for higher potency, the high end for lower potency. `COc1cc(CO)ccc1-c1cc2c(Nc3ccccc3)ncnc2s1` registered an IC50 of 14 nM.
Still for that read-out and setting: the value for `C[C@@H](Nc1ncnc2sc(-c3ccc(C(=O)NCCN(C)C)cc3)cc12)c1ccccc1` was 2 nM.

Another assay deals with MAP kinase-activated protein kinase 2 (Homo sapiens) (UniProt P49137). As to the kind of experiment: Inhibition of MAPKAPK2 (unknown origin) at 500 nM.
On to `COc1cc(CO)ccc1-c1cc2c(Nc3ccccc3)ncnc2s1`, for which the inhibition turned out to be 4%.

A further assay concerns the target Protein kinase C alpha type (Homo sapiens) (UniProt P17252). As to the kind of experiment: Inhibition of PRKCA (unknown origin) at 500 nM.
As for `COc1cc(CO)ccc1-c1cc2c(Nc3ccccc3)ncnc2s1`, the inhibition was -1%.
The same measure, in the same setting: next, `C[C@@H](Nc1ncnc2sc(-c3ccc(C(=O)NCCN(C)C)cc3)cc12)c1ccccc1`: 0%.

In another assay the target is Mitogen-activated protein kinase 8 (Homo sapiens) (UniProt P45983). As to the kind of experiment: Inhibition of MAPK8 (unknown origin) at 500 nM.
Chain of Mitogen-activated protein kinase 8 (Homo sapiens) (P45983 whole entry): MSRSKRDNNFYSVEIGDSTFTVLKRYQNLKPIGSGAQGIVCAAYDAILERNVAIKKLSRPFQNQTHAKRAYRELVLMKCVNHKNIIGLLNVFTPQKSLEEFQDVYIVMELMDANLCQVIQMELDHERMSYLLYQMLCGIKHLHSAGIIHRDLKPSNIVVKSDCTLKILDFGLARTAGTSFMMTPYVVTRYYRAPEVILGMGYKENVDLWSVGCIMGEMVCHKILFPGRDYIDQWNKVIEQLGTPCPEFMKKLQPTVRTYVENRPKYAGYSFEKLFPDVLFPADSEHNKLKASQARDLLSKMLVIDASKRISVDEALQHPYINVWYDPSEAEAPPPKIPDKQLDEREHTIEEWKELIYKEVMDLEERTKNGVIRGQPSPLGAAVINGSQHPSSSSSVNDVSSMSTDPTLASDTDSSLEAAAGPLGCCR
`COc1cc(CO)ccc1-c1cc2c(Nc3ccccc3)ncnc2s1`: the inhibition was determined as 17%.
On the same count and under the same terms, next, `C[C@@H](Nc1ncnc2sc(-c3ccc(C(=O)NCCN(C)C)cc3)cc12)c1ccccc1`: 38%.

The target in the next assay is Serine/threonine-protein kinase B-raf (Homo sapiens) (UniProt P15056). Briefly: Inhibition of BRAF (unknown origin) at 500 nM.
On to `COc1cc(CO)ccc1-c1cc2c(Nc3ccccc3)ncnc2s1`, for which the inhibition was determined as 11%.
Take `C[C@@H](Nc1ncnc2sc(-c3ccc(C(=O)NCCN(C)C)cc3)cc12)c1ccccc1`: the inhibition was determined as 23%.

The next assay has as its target Fibroblast growth factor receptor 1 (Homo sapiens) (UniProt P11362). Briefly: Inhibition of FGFR1 (unknown origin) at 500 nM.
On to `COc1cc(CO)ccc1-c1cc2c(Nc3ccccc3)ncnc2s1`, for which the inhibition was -4%.
As for `C[C@@H](Nc1ncnc2sc(-c3ccc(C(=O)NCCN(C)C)cc3)cc12)c1ccccc1`, the inhibition is -7%.

In the next assay the target is Focal adhesion kinase 1 (Homo sapiens) (UniProt Q05397). As to the kind of experiment: Inhibition of PTK2 (unknown origin) at 500 nM.
For `COc1cc(CO)ccc1-c1cc2c(Nc3ccccc3)ncnc2s1`, the inhibition was determined as 15%.
The same measure, in the same setting: the value for `C[C@@H](Nc1ncnc2sc(-c3ccc(C(=O)NCCN(C)C)cc3)cc12)c1ccccc1` was 7%.

Another assay deals with Tyrosine-protein kinase JAK2 (Homo sapiens) (UniProt O60674). As to the kind of experiment: Inhibition of JAK2 (unknown origin) at 500 nM.
Chain of Tyrosine-protein kinase JAK2 (Homo sapiens) (O60674 whole entry): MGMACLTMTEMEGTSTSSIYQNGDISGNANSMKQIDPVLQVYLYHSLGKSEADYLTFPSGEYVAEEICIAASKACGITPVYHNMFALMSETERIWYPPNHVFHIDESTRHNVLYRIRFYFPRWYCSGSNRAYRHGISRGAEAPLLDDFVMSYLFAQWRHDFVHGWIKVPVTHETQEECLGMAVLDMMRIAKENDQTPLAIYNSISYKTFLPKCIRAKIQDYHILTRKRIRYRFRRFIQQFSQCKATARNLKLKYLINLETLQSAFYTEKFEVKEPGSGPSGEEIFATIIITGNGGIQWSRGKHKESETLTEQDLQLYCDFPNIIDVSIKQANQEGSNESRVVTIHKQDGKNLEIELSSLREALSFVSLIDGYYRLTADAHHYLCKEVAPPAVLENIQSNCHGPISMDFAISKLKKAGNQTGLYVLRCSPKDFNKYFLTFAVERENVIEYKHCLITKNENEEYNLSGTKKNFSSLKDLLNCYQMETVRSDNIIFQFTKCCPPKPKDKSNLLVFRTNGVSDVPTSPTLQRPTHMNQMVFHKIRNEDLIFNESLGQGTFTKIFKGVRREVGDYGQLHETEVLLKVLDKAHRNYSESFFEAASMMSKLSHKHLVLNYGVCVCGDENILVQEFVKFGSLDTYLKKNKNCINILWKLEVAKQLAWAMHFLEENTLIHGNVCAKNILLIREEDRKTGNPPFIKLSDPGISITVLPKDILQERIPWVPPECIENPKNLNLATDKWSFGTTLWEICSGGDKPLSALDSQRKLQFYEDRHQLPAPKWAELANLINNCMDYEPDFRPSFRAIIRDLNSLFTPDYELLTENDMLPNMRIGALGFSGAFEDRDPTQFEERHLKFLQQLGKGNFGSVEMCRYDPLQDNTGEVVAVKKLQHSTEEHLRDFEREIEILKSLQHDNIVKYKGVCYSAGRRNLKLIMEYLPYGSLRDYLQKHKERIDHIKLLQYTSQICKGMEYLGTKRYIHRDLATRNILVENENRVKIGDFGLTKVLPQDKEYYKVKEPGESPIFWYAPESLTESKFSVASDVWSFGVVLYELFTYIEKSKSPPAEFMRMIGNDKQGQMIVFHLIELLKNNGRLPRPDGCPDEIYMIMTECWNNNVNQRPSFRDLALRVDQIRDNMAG
For the compound `COc1cc(CO)ccc1-c1cc2c(Nc3ccccc3)ncnc2s1`, the inhibition is -2%.
On the same count and under the same terms, next, `C[C@@H](Nc1ncnc2sc(-c3ccc(C(=O)NCCN(C)C)cc3)cc12)c1ccccc1`: -10%.

For another assay, the target named is Proto-oncogene tyrosine-protein kinase receptor Ret (Homo sapiens) (UniProt P07949). Briefly: Inhibition of RET (unknown origin) at 500 nM.
As for `COc1cc(CO)ccc1-c1cc2c(Nc3ccccc3)ncnc2s1`, the inhibition turned out to be 26%.
Same read-out and setting: next, `C[C@@H](Nc1ncnc2sc(-c3ccc(C(=O)NCCN(C)C)cc3)cc12)c1ccccc1`: -2%.

A further assay addresses Proto-oncogene tyrosine-protein kinase Src (Homo sapiens) (UniProt P12931). As to the kind of experiment: Inhibition of SRC (unknown origin) at 500 nM.
Consider `COc1cc(CO)ccc1-c1cc2c(Nc3ccccc3)ncnc2s1`, for which the inhibition is 17%.
On the same count and under the same terms, next, `C[C@@H](Nc1ncnc2sc(-c3ccc(C(=O)NCCN(C)C)cc3)cc12)c1ccccc1`: 18%.

A further assay concerns the target Mitogen-activated protein kinase 1 (Homo sapiens) (UniProt P28482). As to the kind of experiment: Inhibition of MAPK1 (unknown origin) at 500 nM.
With `COc1cc(CO)ccc1-c1cc2c(Nc3ccccc3)ncnc2s1`, the inhibition was -6%.
On the same count and under the same terms, next, `C[C@@H](Nc1ncnc2sc(-c3ccc(C(=O)NCCN(C)C)cc3)cc12)c1ccccc1`: 9%.

A further assay concerns the target Protein kinase C beta type (Homo sapiens) (UniProt P05771). Briefly: Inhibition of PRKCB1 (unknown origin) at 500 nM.
For `COc1cc(CO)ccc1-c1cc2c(Nc3ccccc3)ncnc2s1`, the inhibition was -7%.
On the same count and under the same terms, next, `C[C@@H](Nc1ncnc2sc(-c3ccc(C(=O)NCCN(C)C)cc3)cc12)c1ccccc1`: 2%.

In a further assay the target is Tyrosine-protein kinase Yes (Homo sapiens) (UniProt P07947). Briefly: Inhibition of YES1 (unknown origin) at 500 nM.
Chain of Tyrosine-protein kinase Yes (Homo sapiens) (P07947 2-543 limits assumed): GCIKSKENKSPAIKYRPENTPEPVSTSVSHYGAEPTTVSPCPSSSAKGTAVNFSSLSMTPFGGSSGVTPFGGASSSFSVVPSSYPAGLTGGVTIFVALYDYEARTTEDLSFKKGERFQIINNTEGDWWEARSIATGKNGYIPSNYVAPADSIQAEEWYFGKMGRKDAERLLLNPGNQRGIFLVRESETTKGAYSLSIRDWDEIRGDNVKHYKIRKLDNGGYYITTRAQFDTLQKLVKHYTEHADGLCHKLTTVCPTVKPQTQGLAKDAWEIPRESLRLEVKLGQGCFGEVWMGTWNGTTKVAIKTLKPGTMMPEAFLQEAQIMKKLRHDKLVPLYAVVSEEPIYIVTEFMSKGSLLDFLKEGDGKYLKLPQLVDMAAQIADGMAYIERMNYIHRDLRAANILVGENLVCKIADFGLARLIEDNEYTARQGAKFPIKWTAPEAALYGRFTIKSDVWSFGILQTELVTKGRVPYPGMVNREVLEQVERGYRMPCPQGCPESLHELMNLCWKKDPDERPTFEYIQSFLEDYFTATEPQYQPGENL
For `COc1cc(CO)ccc1-c1cc2c(Nc3ccccc3)ncnc2s1`, the inhibition was 20%.
Same read-out and setting: the value for `C[C@@H](Nc1ncnc2sc(-c3ccc(C(=O)NCCN(C)C)cc3)cc12)c1ccccc1` was 23%.

The next assay deals with Platelet-derived growth factor receptor alpha (Homo sapiens) (UniProt P16234). As to the kind of experiment: Inhibition of PDGFRA (unknown origin) at 500 nM.
Turning to `COc1cc(CO)ccc1-c1cc2c(Nc3ccccc3)ncnc2s1`, the inhibition was 7%.
Same read-out and setting: the value for `C[C@@H](Nc1ncnc2sc(-c3ccc(C(=O)NCCN(C)C)cc3)cc12)c1ccccc1` was 15%.

In a further assay the target is Serine/threonine-protein kinase PLK1 (Homo sapiens) (UniProt P53350). As to the kind of experiment: Inhibition of PLK1 (unknown origin) at 500 nM.
Take `COc1cc(CO)ccc1-c1cc2c(Nc3ccccc3)ncnc2s1`: the inhibition turned out to be 2%.
On the same count and under the same terms, the value for `C[C@@H](Nc1ncnc2sc(-c3ccc(C(=O)NCCN(C)C)cc3)cc12)c1ccccc1` was 1%.

Another assay addresses Tyrosine-protein kinase Fer (Homo sapiens) (UniProt P16591). Briefly: Inhibition of FER (unknown origin) at 500 nM.
With `COc1cc(CO)ccc1-c1cc2c(Nc3ccccc3)ncnc2s1`, the inhibition worked out at 0%.
In the case of `C[C@@H](Nc1ncnc2sc(-c3ccc(C(=O)NCCN(C)C)cc3)cc12)c1ccccc1`, the inhibition was -4%.

The target of another assay is Insulin-like growth factor 1 receptor (Homo sapiens) (UniProt P08069). Briefly: Inhibition of IGF1R (unknown origin) at 500 nM.
Chain of Insulin-like growth factor 1 receptor (Homo sapiens) (P08069 31-736 limits assumed): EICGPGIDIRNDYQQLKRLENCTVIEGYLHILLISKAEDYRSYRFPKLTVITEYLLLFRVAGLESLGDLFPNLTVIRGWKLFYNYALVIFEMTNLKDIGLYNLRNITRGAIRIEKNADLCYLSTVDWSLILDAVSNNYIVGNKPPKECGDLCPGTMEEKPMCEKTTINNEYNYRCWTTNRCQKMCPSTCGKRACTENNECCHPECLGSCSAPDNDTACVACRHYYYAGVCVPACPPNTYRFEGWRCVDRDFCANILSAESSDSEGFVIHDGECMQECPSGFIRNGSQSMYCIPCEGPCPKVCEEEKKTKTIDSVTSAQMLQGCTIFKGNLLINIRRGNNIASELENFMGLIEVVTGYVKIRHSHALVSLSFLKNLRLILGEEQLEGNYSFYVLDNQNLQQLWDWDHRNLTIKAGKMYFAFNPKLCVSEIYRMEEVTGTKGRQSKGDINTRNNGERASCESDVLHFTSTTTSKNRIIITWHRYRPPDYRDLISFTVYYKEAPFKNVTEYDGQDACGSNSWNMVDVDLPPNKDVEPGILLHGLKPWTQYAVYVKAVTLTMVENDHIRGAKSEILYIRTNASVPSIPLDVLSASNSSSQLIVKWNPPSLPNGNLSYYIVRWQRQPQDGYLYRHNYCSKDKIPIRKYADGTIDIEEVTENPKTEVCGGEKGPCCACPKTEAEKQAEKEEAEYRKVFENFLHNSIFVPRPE
Chain of Insulin-like growth factor 1 receptor (Homo sapiens) (P08069 741-1367 limits assumed): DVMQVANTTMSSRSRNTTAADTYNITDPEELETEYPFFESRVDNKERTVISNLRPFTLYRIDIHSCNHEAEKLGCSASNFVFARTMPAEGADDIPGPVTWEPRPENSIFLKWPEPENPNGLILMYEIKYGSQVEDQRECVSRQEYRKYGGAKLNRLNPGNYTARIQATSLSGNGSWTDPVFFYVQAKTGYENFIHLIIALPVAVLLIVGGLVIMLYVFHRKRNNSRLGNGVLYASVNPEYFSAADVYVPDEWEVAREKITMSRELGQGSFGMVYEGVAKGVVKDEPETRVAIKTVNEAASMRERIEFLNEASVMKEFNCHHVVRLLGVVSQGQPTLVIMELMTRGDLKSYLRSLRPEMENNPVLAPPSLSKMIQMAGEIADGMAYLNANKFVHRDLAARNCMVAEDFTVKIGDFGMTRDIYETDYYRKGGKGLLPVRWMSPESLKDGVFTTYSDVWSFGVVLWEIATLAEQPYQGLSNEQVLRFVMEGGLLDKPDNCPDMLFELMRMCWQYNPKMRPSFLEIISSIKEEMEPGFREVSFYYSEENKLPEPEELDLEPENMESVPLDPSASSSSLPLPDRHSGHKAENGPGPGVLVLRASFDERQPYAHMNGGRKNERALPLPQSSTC
With `COc1cc(CO)ccc1-c1cc2c(Nc3ccccc3)ncnc2s1`, the inhibition is -3%.
With `C[C@@H](Nc1ncnc2sc(-c3ccc(C(=O)NCCN(C)C)cc3)cc12)c1ccccc1`, the inhibition is -6%.

The next assay deals with Serine/threonine-protein kinase pim-2 (Homo sapiens) (UniProt Q9P1W9). Briefly: Inhibition of PIM2 (unknown origin) at 500 nM.
For the compound `COc1cc(CO)ccc1-c1cc2c(Nc3ccccc3)ncnc2s1`, the inhibition came to 5%.
As for `C[C@@H](Nc1ncnc2sc(-c3ccc(C(=O)NCCN(C)C)cc3)cc12)c1ccccc1`, the inhibition stood at 3%.

A further assay has as its target Tyrosine-protein kinase Fgr (Homo sapiens) (UniProt P09769). Briefly: Inhibition of FGR (unknown origin) at 500 nM.
With `COc1cc(CO)ccc1-c1cc2c(Nc3ccccc3)ncnc2s1`, the inhibition turned out to be 25%.
Take `C[C@@H](Nc1ncnc2sc(-c3ccc(C(=O)NCCN(C)C)cc3)cc12)c1ccccc1`: the inhibition came out at 18%.

The target in another assay is T1, Serine/threonine-protein kinase Chk1 (Homo sapiens) (UniProt O14757).
T1 sequence (whole entry): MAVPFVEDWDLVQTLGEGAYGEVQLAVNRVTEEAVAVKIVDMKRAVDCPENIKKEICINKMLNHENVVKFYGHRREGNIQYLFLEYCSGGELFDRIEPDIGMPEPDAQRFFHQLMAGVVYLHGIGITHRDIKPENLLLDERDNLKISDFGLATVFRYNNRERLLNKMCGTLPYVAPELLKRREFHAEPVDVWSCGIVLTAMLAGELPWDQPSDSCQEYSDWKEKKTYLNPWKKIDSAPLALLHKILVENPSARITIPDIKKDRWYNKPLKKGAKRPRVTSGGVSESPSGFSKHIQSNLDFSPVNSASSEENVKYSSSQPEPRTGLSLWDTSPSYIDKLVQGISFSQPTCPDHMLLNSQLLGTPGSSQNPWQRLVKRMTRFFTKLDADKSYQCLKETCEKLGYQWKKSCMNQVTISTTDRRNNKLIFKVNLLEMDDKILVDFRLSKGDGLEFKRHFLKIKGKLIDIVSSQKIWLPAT
As to the kind of experiment: Inhibition of CHEK1 (unknown origin) at 500 nM.
On to `C[C@@H](Nc1ncnc2sc(-c3ccc(C(=O)NCCN(C)C)cc3)cc12)c1ccccc1`, for which the inhibition was -6%.

For another assay, the target named is Tyrosine-protein kinase ABL1 (Homo sapiens) (UniProt P00519). Briefly: Inhibition of ABL1 (unknown origin) at 500 nM.
As for `COc1cc(CO)ccc1-c1cc2c(Nc3ccccc3)ncnc2s1`, the inhibition was 20%.
Still for that read-out and setting: next, `C[C@@H](Nc1ncnc2sc(-c3ccc(C(=O)NCCN(C)C)cc3)cc12)c1ccccc1`: 1%.

For another assay, the target named is Aurora kinase B (Homo sapiens) (UniProt Q96GD4). Briefly: Inhibition of AURKB (unknown origin) at 500 nM.
Chain of Aurora kinase B (Homo sapiens) (Q96GD4 whole entry): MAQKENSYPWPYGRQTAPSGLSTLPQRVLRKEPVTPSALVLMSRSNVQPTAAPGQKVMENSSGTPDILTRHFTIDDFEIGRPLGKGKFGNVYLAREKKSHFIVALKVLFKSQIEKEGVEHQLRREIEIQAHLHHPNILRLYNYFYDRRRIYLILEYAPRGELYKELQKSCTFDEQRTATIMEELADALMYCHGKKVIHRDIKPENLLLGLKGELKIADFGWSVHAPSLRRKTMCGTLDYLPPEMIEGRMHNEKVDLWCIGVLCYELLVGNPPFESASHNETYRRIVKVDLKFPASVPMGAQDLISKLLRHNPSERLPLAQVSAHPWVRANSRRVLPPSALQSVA
Take `COc1cc(CO)ccc1-c1cc2c(Nc3ccccc3)ncnc2s1`: the inhibition amounted to 10%.
Still for that read-out and setting: next, `C[C@@H](Nc1ncnc2sc(-c3ccc(C(=O)NCCN(C)C)cc3)cc12)c1ccccc1`: 17%.

The next assay has as its target Vascular endothelial growth factor receptor 1 (Homo sapiens) (UniProt P17948). Briefly: Inhibition of FLT1 (unknown origin) at 500 nM.
With `COc1cc(CO)ccc1-c1cc2c(Nc3ccccc3)ncnc2s1`, the inhibition was 9%.
With `C[C@@H](Nc1ncnc2sc(-c3ccc(C(=O)NCCN(C)C)cc3)cc12)c1ccccc1`, the inhibition was 1%.

Another assay addresses Tyrosine-protein kinase CSK (Homo sapiens) (UniProt P41240). Briefly: Inhibition of CSK (unknown origin) at 500 nM.
In the case of `COc1cc(CO)ccc1-c1cc2c(Nc3ccccc3)ncnc2s1`, the inhibition worked out at 18%.
Same read-out and setting: next, `C[C@@H](Nc1ncnc2sc(-c3ccc(C(=O)NCCN(C)C)cc3)cc12)c1ccccc1`: 10%.
